Reference: patent publication US20140303144A1, “COMPOUNDS AND METHODS OF TREATING HYPERTENSION” (Medivation Technologies, Inc., priority 2011, published 2014)

Legend:
[1] = target: T1, human recombinant adrenergic α2B receptor (Homo sapiens, UniProt P18089); assay: Adrenergic α2B radioligand binding assay ([3H]Rauwolscine); settings: 0.1 μM compound; read-out: Percentage inhibition of ligand binding, Adrenergic α2B
T1 construct: expressed in transfected cells; host or cells: CHO-K1 cells
T1 sequence (P18089 1-450): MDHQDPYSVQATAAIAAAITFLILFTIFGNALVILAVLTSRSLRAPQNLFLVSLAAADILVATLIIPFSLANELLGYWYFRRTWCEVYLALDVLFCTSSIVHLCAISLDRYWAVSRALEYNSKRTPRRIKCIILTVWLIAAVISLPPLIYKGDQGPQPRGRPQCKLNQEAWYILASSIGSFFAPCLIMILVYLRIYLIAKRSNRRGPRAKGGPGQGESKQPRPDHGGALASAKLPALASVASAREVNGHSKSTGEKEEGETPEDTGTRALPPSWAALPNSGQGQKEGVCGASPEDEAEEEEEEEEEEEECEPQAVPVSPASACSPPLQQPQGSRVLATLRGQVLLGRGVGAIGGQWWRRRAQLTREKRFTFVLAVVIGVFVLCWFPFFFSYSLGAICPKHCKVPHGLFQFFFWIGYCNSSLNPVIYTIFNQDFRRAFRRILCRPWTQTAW
Method: To evaluate in radioligand binding assays the activity of compounds of the invention, human recombinant adrenergic α2B receptor expressed in Chinese hamster ovary (CHO) K1 cells (Uhlen, S. et al, Eur. J. Pharmacol. 343(1):93, 1998) in a modified Tris-HCl buffer (50 mM Tris-HCl, pH 7.4, 12.5 mM MgCl2, 1 mM EDTA, 0.2% BSA) was used. Compounds of the invention were incubated with 2.5 nM [3H]Rauwolscine for 60 min at 25° C. Non-specific binding was estimated in the presence of 10 μM Prazosin. Receptor proteins were filtered and washed, the filters were then counted to determine [3H]Rauwolscine specifically bound. Compounds were screened at 1 μM or lower, using 1% DMSO as vehicle. Compounds of the invention were tested in this biochemical assay and percent inhibition of specific binding was determined. Biochemical assay results are presented as the percent inhibition of specific binding in Tables B1A-B1D.

[2] = system: SH-SY5Y cells; assay: Cell viability assay (MTS reduction) against 4-Br-A23187 challenge; format: cell-based; settings: Homo sapiens, SH-SY5Y, compound 10 nM, 4-Br-A23187 (2 μM) for 24 h, Control = 100, Vehicle = 0, read-out: Relative Cytoprotective capacity
Method: SH-SY5Y cells cultured in DMEM/F12 media supplemented with 10% FBS were seeded in 96-well microplates at 150,000 cells/cm^2. After 24 h, cells were depleted from FBS and kept in culture for 24 h before the experiment. A stock solution was prepared by dissolving the calcium ionophore 4-Br-A23187 (Calbiochem Cat. N^o 100107) in DMSO at 25 mM. Cells were then treated with 4-Br-A23187 (2 μM), hydrogen peroxide (300 μM) or the mitochondrial toxin rotenone (25 μM) in the presence of vehicle or Compound of the Invention for 24 h. Cell death was determined by measurements of LDH release according to the Cytotoxicity Detection KitPlus (Roche, Mannheim, Germany). Cell viability was determined by measuring the capacity of cells to metabolize MTS tetrazolium (MTS) according to the Cytotoxicity Detection KitPlus (Roche, Mannheim, Germany) and MTS reduction was assessed by the CellTiter 96® AQueous One Solution Cell Proliferation assay (Promega Corporation, Madison, Wis., USA). Compounds were screened at 10 nM, using DMSO as vehicle. Assay results for the experiments with Br-A23187 were presented as the MTS reduction capacity (cell viability) of untreated cells (control), 4-Br-A23187-treated cells (vehicle), and co-incubation of Br-A23187 with Compounds of the Invention treated cells and using […] (FCCP) at 10 μM for 30 min as a control. This assay assesses the ability of the test compounds to protect against cell death that was mediated by mitochondrial dysfunction. In the assay, the calcium ionophore 4-Br-A23187 was used to challenge the cells, causing calcium levels to rise in mitochondria, which leads to depolarization and cell death. Test compounds were assessed for their ability to prevent cell death in response to challenge with 4-Br-A23187.

SMILES	inhibition at 0.1 µM [1] [%]	viability at 0.01 µM [2] [%]
Cc1cc(/C=C/c2ccc(C)nc2)c2c(c1)c1c(n2C)CCN(C)C1 [A14]	-3	
C#Cc1cc(C)cc2c3c(n(C)c12)CCN(C)C3 [A10]	8	
C/C(=C\c1cc(C)cc2c3c(n(C)c12)CCN(C)C3)c1ccncc1 [A11]	14	37.6
C/C(=C\c1cc(C)cc2c3c(n(C)c12)CCN(C)C3)c1ccc(C)nc1 [A15]	21	
Cc1cc(C#Cc2ccc(C)nc2)c2c(c1)c1c(n2C)CCN(C)C1 [A12]	6	35.7
Cc1cc(C#Cc2cccs2)c2[nH]c3c(c2c1)CN(C)CC3 [A8]	-1	
Cc1cc(-c2ccncc2)c2c(c1)c1c(n2C)CCN(C)C1 [A9]	-7	15.8
Cc1cc(C#Cc2nccs2)c2[nH]c3c(c2c1)CN(C)CC3 [A16]	17	
Cc1cc(CCc2ccc(C)nc2)c2c(c1)c1c(n2C)CCN(C)C1 [A13]	5	19.7
Cc1cc(-c2ccc(F)cc2)c2c(c1)c1c(n2C)CCN(C)C1 [A7]	-9	

Second part, led by results:

inhibition at 0.1 µM [1] [%]	SMILES	viability at 0.01 µM [2] [%]
43	Cc1cc2c3c(c1)c1c(n3CC(C)(c3ccncc3)OC(C)C2)CCN(C)C1 (stereo not shown) [B165]	
4	Cc1cc2c3c(c1)c1c(n3C[C@](C)(c3ccncc3)O[C@H]2C)CCN(C)C1 [B163]	
27	Cc1cc2c3c(c1)c1c(n3C[C@@](C)(c3ccncc3)O[C@H]2C)CCN(C)C1 [B162]	
30	Cc1ccc2c(c1)c1c3n2CC(c2ccncc2)=CCC3(C)CN(C)C1 (stereo not shown) [D11]	30.3
38	Cc1ccc(C#Cc2cc(Cl)cc3c4c(n(C)c23)CCN(C)C4)cn1 [A18]	26
-6	Cc1ccc2c(c1)c1c3n2C(c2ccccc2)=CCC3(C)CN(C)C1 (stereo not shown) [D10]	
-8	Cc1cc2c3c(c1)c1c(n3CC(C)(c3ccc(C)nc3)OC(C)C2)CCN(C)C1 (stereo not shown) [B160]	
72	Cc1cc2c3c(c1)c1c(n3C(c3ccccc3)C2)CCN(C)C1 (stereo not shown) [B12]	
-7	Cc1ccc2c(c1)c1c3n2C(c2ccccc2)CCC3(C)CN(C)C1 (stereo not shown) [D12]	32.5
21	Cc1cc(C#Cc2ccncc2)c2c(c1)c1c(n2C)CCN(C)C1 [A17]	10.8
